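Protocol summary: plate cells (96-well), add compound at 5 concentrations, incubate 48 h, interpolate endpoints linearly. Here, GI50 denotes the concentration required for 50% inhibition of growth.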 The source made the active and inactive calls. No stated cut-off is given here; in the data, active = GI50 up to about 1.1 µM and inactive = higher.
What was measured:
Assay in all cases: NCI anticancer screen, dose series, 48 h
[1] = system: UACC-62
[2] = system: COLO 205
[3] = system: SNB-75
[4] = system: SW-620
[5] = system: XF498
[6] = system: DMS-273
[7] = system: DLD-1
[8] = system: NCI-H460
[9] = system: HOP-62
[10] = system: DMS-114
[11] = system: M19-MEL
[12] = system: OVCAR-5
[13] = system: SF-539
[14] = system: SK-MEL-2
[15] = system: SF-268
[16] = system: A549
[17] = system: HT-29
[18] = system: MOLT-4
[19] = system: UACC-257
[20] = system: NCI-H226
[21] = system: SR
[22] = system: EKVX
[23] = system: SF-295
[24] = system: LOX IMVI
[25] = system: SK-MEL-5
[26] = system: SNB-19
[27] = system: HCT-15
[28] = system: Malme-3M
[29] = system: CCRF-CEM
[30] = system: SK-OV-3
[31] = system: KM12
[32] = system: CAKI-1
[33] = system: 786-0
[34] = system: NCI-H23
[35] = system: NCI-H522
[36] = system: RXF 393
[37] = system: ACHN
[38] = system: SK-MEL-28
[39] = system: KM-20L2
[40] = system: HCT-116
[41] = system: M14
[42] = system: HL-60
[43] = system: TK-10
[44] = system: LXFL 529
[45] = system: IGROV-1
[46] = system: OVCAR-8
[47] = system: HOP-92
[48] = system: HCC 2998
[49] = system: U-251
[50] = system: UO-31
[51] = system: HOP-18
[52] = system: RPMI-8226
[53] = system: OVCAR-4
[54] = system: SNB-78
[55] = system: OVCAR-3
[56] = system: RXF 631
[57] = system: K562
[58] = system: SN12C
[59] = system: A498

O=C1c2cccc3cc([N+](=O)[O-])cc(c23)C(=O)N1NC1=NCCN1
GI50 [1]: > 100 µM (inactive) | GI50 [2]: > 100 µM (inactive) | GI50 [3]: > 100 µM (inactive) | GI50 [4]: > 100 µM (inactive) | GI50 [5]: > 100 µM (inactive) | GI50 [6]: > 100 µM (inactive) | GI50 [7]: > 100 µM (inactive) | GI50 [8]: > 100 µM (inactive) | GI50 [9]: > 100 µM (inactive) | GI50 [10]: > 100 µM (inactive) | GI50 [11]: > 100 µM (inactive) | GI50 [12]: > 100 µM (inactive) | GI50 [13]: > 100 µM (inactive) | GI50 [14]: > 100 µM (inactive) | GI50 [15]: > 100 µM (inactive) | GI50 [16]: > 100 µM (inactive) | GI50 [17]: > 100 µM (inactive) | GI50 [18]: > 100 µM (inactive) | GI50 [19]: > 100 µM (inactive) | GI50 [20]: > 100 µM (inactive) | GI50 [21]: > 100 µM (inactive) | GI50 [22]: > 100 µM (inactive) | GI50 [23]: > 100 µM (inactive) | GI50 [24]: > 100 µM (inactive) | GI50 [25]: > 100 µM (inactive) | GI50 [26]: > 100 µM (inactive) | GI50 [27]: > 100 µM | GI50 [28]: > 100 µM (inactive) | GI50 [29]: > 100 µM (inactive) | GI50 [30]: > 100 µM (inactive) | GI50 [31]: > 100 µM (inactive) | GI50 [32]: > 100 µM (inactive) | GI50 [33]: > 100 µM (inactive) | GI50 [34]: > 100 µM (inactive) | GI50 [35]: > 100 µM (inactive) | GI50 [36]: > 100 µM (inactive) | GI50 [37]: > 100 µM (inactive) | GI50 [38]: > 100 µM (inactive) | GI50 [39]: > 100 µM (inactive) | GI50 [40]: > 100 µM (inactive) | GI50 [41]: > 100 µM (inactive) | GI50 [42]: > 100 µM (inactive) | GI50 [43]: > 100 µM (inactive) | GI50 [44]: > 100 µM (inactive) | GI50 [45]: > 100 µM (inactive) | GI50 [46]: > 100 µM (inactive) | GI50 [47]: > 100 µM (inactive) | GI50 [48]: > 100 µM (inactive) | GI50 [49]: > 100 µM (inactive) | GI50 [50]: > 100 µM (inactive) | GI50 [51]: > 100 µM (inactive) | GI50 [52]: > 100 µM (inactive) | GI50 [53]: > 100 µM (inactive) | GI50 [54]: > 100 µM (inactive) | GI50 [55]: > 100 µM (inactive) | GI50 [56]: > 100 µM (inactive) | GI50 [57]: > 100 µM (inactive) | GI50 [58]: > 100 µM (inactive) | GI50 [59]: > 100 µM (inactive)
